Each structure is given as a SMILES string. Like-named read-outs stand apart in the source and are kept apart here.

One series concerns Sprague-Dawley rats. Kind of series: Rat GC4403 28-day IV toxicology. The class given is in vivo. The settings on record: 28 days. How it is done:
GC4403 was evaluated in a 28-day GLP study in Sprague-Dawley rats. GC4403 was administered to rats (10/sex/group) as slow-bolus IV injections at dosages of 0, 1, 3 or 6 mg/kg/day for 28 days. The control (0 dose) group received vehicle (26 mM sodium bicarbonate in normal saline). Evaluations for compound-related effects were based on clinical observations, body weight, food consumption, hematology and clinical chemistry parameters, functional observation battery, organ weights and gross and microscopic postmortem examinations. There were no compound-related changes in organ weights or macroscopic or microscopic pathology. Based on the results of this study, the NOTEL for GC4403, when administered to rats for 28 days as an IV infusion was 3 mg/kg/day.

Series [1] is described as follows: Human Phase 1 pharmacokinetics of GC4403. The class given is in vivo. The conditions noted are these: both sexes, plasma; for AUC(0-t): read-out: AUC0-24 h. How it is done:
In a Phase 1 randomized, double-blind, placebo-controlled single rising dose safety, tolerability and pharmacokinetics study, 54 healthy male and female subjects were dosed from 2.2 to 25 mg of GC4403 administered intravenously over 30 minutes. Disposition of GC4403 is multi-exponential and follows linear pharmacokinetics with generally proportional increases in AUC and Cmax with increasing dose over the dose ranges studied. […] GC4403 is excreted unchanged in the urine and accounts for approximately 9 to 17% of the dose administered. No significant cardiovascular or vital sign effects, no significant physical examination abnormalities, and no significant abnormalities in routine clinical laboratory assessments were observed. Facial tingling, generalized tingling, paraesthesias and facial warmth were reported in a dose responsive manner, occurring at the 16.7 and 25 mg GC4403 doses.
As part of the conduct of the Phase 1a clinical studies for GC4403 and GC4419 described in the Examples herein, plasma samples were collected for measuring the concentration of parent compounds (GC4403 and GC4419) after intravenous infusion. Table 3 illustrates the pharmacokinetic parameter, area under the curve (AUC), representing the total exposure of the subject to the drugs over time.

Series [2] in a line: GC4403 28-day IV toxicity in dog. The class given is in vivo. The conditions noted are these: both sexes, dog, in vivo; beagle dogs, IV, 28 consecutive days; read-out: no observed adverse effect level (NOAEL). As for the experimental part: (§1) GC4403 was evaluated in a Good Laboratory Practice (GLP)-regulated study in beagle dogs. GC4403 was administered intravenously (IV) via slow bolus dose, once daily, to beagle dogs for 28 consecutive days. GC4403 was administered IV into the cephalic vein (0.5 mL/kg) to 3 groups of dogs (4 animals/sex/group) at dosages of 1.0, 3.0 and 6.0 mg/kg with a fourth group receiving vehicle (26 mM sodium bicarbonate in normal saline). […] There were no test article-related differences in group mean hematology, coagulation, or clinical chemistry parameters or urinalysis parameters after 28 days of treatment in any dosing group. At necropsy on day 29, there were neither test-article related gross macroscopic findings nor test-article-related differences in organ weight. No test-article-related histopathological lesions were present. There were no test-article-related electrocardiology (ECG) effects when evaluated on day 27.

Series [3] has as its system beagle dogs. Kind of series: GC4403 28-day IV toxicity in dog. The class given is in vivo. The settings on record: 28 days. How it is done: as §1
Series [4] in a line: 14-day repeat dose toxicity of GC4419 in dog. It is filed as in vivo, beagle dogs. The settings on record: both sexes, dog, in vivo, beagle dogs, IV over 15 minutes once daily. As for the experimental part:
(§2) GC4419 was evaluated in a GLP study in beagle dogs. GC4419 was administered intravenously (IV) over 15 minutes, once daily, to beagle dogs for 14 consecutive days. GC4419 was administered IV into the cephalic vein (4 mL/kg) to 3 groups of dogs (4 animals/sex/group) at dosages of 2.5, 5.0 and 7.5 mg/kg with a fourth group receiving vehicle (26 mM sodium bicarbonate in normal saline). […] All animals recovered from these effects. There were no test-article-related differences in group mean hematology, coagulation, or clinical chemistry parameters or urinalysis parameters after 14 days of treatment in any dosing group. At necropsy on day 15, there were neither test-article related gross macroscopic findings nor test-article-related differences in organ weight. No test-article-related histopathological lesions were present.

The test system of series [5] is beagle dogs. As to the kind of experiment: 14-day repeat dose toxicity of GC4419 in dog. It is filed as in vivo. The settings on record: beagle dogs, 2.5, 5.0 and 7.5 mg/kg IV over 15 minutes, 14 days. As for the experimental part: as §2
Series [6] relates to radiation-induced oral mucositis. As to the kind of experiment: Hamster model of radiation-induced oral mucositis. The class given is in vivo, Male Syrian golden hamsters. The conditions noted are these: all doses (3-30 mg/kg) administered prior to irradiation. As for the experimental part: GC4403 and GC4419 were studied in a hamster model of oral mucositis (OM). Irradiation of the hamster cheek pouch induces lesions that are histologically similar to OM that which occurs clinically, and develop and resolve at a similar rate to radiation-induced OM in humans. […] The animals received 40 Gy radiation localized to the everted cheek pouch and were evaluated every second day for the development of inflammation at the radiation site. Inflammation was rated on a scale of 0 (normal) to 5 (total ulceration of pouch) by a trained observer, blinded to the treatment protocol.

Series [7] can be described thus: Rat GC4419 14-day IV study. It is filed as in vivo. The settings on record: both sexes, rat, in vivo; rats, 15 minute IV infusion, 14 days. How it is done: (§3) GC4419 was evaluated in a 14-day GLP study in rats. GC4419 was administered to rats (10/sex/group) as 15 minute IV injections at dosages of 0, 5, 10 or 20 (15) mg/kg/day for 14 days. The control group received vehicle (sodium citrate in normal saline). Due to mortality at 20 mg/kg/day, the high dose group was decreased to 15 mg/kg/day on Day 3. Evaluations for compound-related effects were based on clinical observations, body weight, food consumption, hematology and clinical chemistry parameters, functional observation battery, organ weights and gross and microscopic postmortem examinations. […] There were no compound-related changes in organ weights or macroscopic or microscopic pathology. Based on the results of this study the NOAEL for GC4419 when administered to rats for 14 days as a 15 minute IV infusion was 15 mg/kg/day.

The subject of a further series is Rats. As to the kind of experiment: Rat GC4419 14-day IV study. The class given is in vivo. The settings on record: 20 mg/kg, Days 1 or 2. How it is done: as §3

As usually defined, the half-life is the time in which the quantity being followed falls by half. As a reminder, the NOAEL is the highest tested level that showed no adverse finding. As for `[Cl][Mn-5]1234([Cl])[n+]5c6cccc5C[NH+]1[C@@H]1CCCC[C@H]1[NH+]2CC[NH+]3[C@@H]1CCCC[C@H]1[NH+]4C6` (some centres unmarked) [GC4403], the NOTEL with Sprague-Dawley rats came to 3 mg/kg/day. Besides, the AUC(0-t) in series [1] (2.2 mg IV over 30 minutes) was determined as 184 ng·h/mL; in series [1] (3.3 mg IV over 30 minutes), 310 ng·h/mL; in [1] (4.9 mg IV over 30 minutes) it was 453 ng·h/mL; in series [1] (7.4 mg IV over 30 minutes), 595 ng·h/mL; in [1] (11.1 mg IV over 30 minutes) it was 1050 ng·h/mL; in [1] (16.7 mg IV over 30 minutes) it was 1510 ng·h/mL. Also, the AUC(0-t) in [1] (25 mg IV over 30 minutes) was found to be 2560 ng·h/mL. In [1] (IV over 30 minutes, read-out: terminal elimination half-life (converted)), the half-life is approximately 1.5 h. The NOAEL at 28 days in series [2] is 1 mg/kg/day. In the series on beagle dogs [3] (beagle dogs, 1.0, 3.0 and 6.0 mg/kg IV), the mortality entry is “No animals died”. In the series with beagle dogs [3] (both, beagle, dog, in vivo, iv), the “no observed toxic effect level (NOTEL)” value was 3.0 mg/kg/day.
Regarding `[Cl][Mn-5]1234([Cl])[n+]5c6cccc5C[NH+]1[C@H]1CCCC[C@@H]1[NH+]2CC[NH+]3[C@H]1CCCC[C@@H]1[NH+]4C6` (some centres unmarked) [GC4419], the NOAEL at 14 days stood at 5 mg/kg/day in series [4] and 15 mg/kg/day in series [7]. In addition, the results for the mortality result in the series with beagle dogs [5] and in the series on Rats were “No animals died” and “Several rats died”, respectively. Further, the “development of grade 3 or greater OM” value in series [6] is “prevented the development of grade 3 or greater OM”.

Source of the values: patent US11826373B2, “Methods for treatment of diseases” (Galera Labs, LLC, priority 2011, dated 2023).
